One experiment addresses T1, AQ STING (G230A-R293Q) (Homo sapiens, UniProt Q86WV6, G230A/H232R/R293Q).
T1 construct: truncated human WT STING or AQ STING (amino acid residues 140-343); 8xHis (N, cleaved yes); SUMO (N, cleaved yes); made in house; host or cells: E. coli Rosetta-gami B (DE3)
Description: Differential Scanning Fluorimetry with AQ STING. Format: binding. As to conditions: thermal shift, truncated human AQ STING 0.1 mg/ml, 150 μM CDN; for ΔTm at 150 µM: read-out: DSF ΔTm AQ STING. The method, then:
(§1) Purified PCR products were cleaved with restriction enzymes BamHI (cat. #R0136S, NEB, Ipswich, USA) and NotI (cat. #R0189S, NEB, Ipswich, USA) and cloned into the pSUMO vector linearized with the identical enzymes.
(§2) DNase I (cat. #D5025, Sigma Aldrich, Czech Republic) and RNase A (cat. #R6513, Sigma Aldrich, Czech Republic) were added (final concentration 50 μg/ml) together with MgCl2 (final concentration 5 mmol·l^−1) to the homogenate and bacteria were lysed using French Press G-M™ High-Pressure Cell Press Homogenizer (1500 psi, 3 cycles). […] The resin was poured into a chromatography column, washed with 50 ml buffer A (50 mmol·l^−1 TrisCl (pH 8.0), 800 mmol·l^−1 NaCl, 3 mmol·l^−1 β-mercaptoethanol; 10% glycerol; 20 mmol·l^−1 imidazole) and 8-His-SUMO tagged STING proteins were eluted with 15 ml buffer A containing 300 mmol·l^−1 imidazole. […] Proteins were concentrated with Amicon® Ultra-15 10 K device (cat. #UFC901008, Merck Millipore, Billerica, USA) and flash frozen in liquid N2.
(§3) 20 μL solutions of the reaction mixtures were pipetted in triplicates into 96 well optical reaction plates and thermal denaturation of samples were performed on real time PCR cycler (LightCycler® 480 Instrument II—Roche, Basel, Switzerland). The first derivative of the thermal denaturation curves was performed to calculate denaturing temperatures of STING-CDN complexes and STING apoproteins. The thermal shift for each CDN was calculated by subtracting the average denaturing temperature of STING apoprotein from the average denaturing temperature of STING CDN complex.
(In general: In DSF a fluorescence change marks the thermal transition of the protein.)

Experiment [1] deals with T2, WT STING (Homo sapiens, UniProt Q86WV6, H232R). Description: Digitonin assay using 293T wtSTING-FL reporter cells. Format: cell-based. As to conditions: 293T wtSTING-FL cells, ISRE firefly luciferase reporter, digitonin buffer 30 minutes, then 5 hours. An excerpt:
Two complementary oligonucleotides of the sequence […] […] […] […] […] […] […] The oligonucleotides were mixed in equal molar amounts, hybridized, and cleaved by restriction endonucleases HindIII (cat. #. R0104S, NEB, Ipswich, USA) and BglII (cat. #R0144S, NEB, Ipswich, USA). Ultimately, they were ligated into plasmid pGL4.27 (cat. #E6651, Promega, Madison, USA) linearized with the same enzymes. As result the sequence with four ISRE sites was placed upstream of the minimum promoter of firefly luciferase reporter gene.
After 5 minutes incubation at room temperature (RT), 250 μL of the mixture was added dropwise to the cells in one well. Cells were incubated 36 hours at 37° C. with 5% CO2, and then detached with 0.05% Trypsin and 0.22 g/L EDTA (both cat. #L0941, Biowest, Riverside, USA).
Transfected cells were seeded onto poly-D-lysine coated six well plates at density 50,000 cells per 1 cm^2 in DMEM medium with high glucose containing 10% heat inactivated FBS, 30 μg/mL blasticidin (cat. #ant-bl-05, InvivoGen, San Diego, USA), 0.06 mg/ml Penicillin G and 0.1 mg/ml Streptomycin Sulfate (both cat. #. L0018, Biowest, Riverside, USA). The medium was replenished every 3-4 days until visible colonies of cells resistant to blasticidin were formed.
Blasticidin resistant cells stably expressing WT STING were further transfected with pGL64.27-4×ISRE plasmid following the same procedure as described above. […] Homogeneous culture of stably double transfected cells was prepared by limiting dilution of cells in 96 well plates and wells with cells were selected that originated from a single cell.
The medium was removed next day and three fold serial dilutions of compounds in Digitonin buffer containing 50 mmol·l^−1 HEPES (cat. #H3375, Sigma Aldrich, Czech Republic) pH 7.0, 100 mmol·l^−1 KCl, 3 mmol·l^−1 MgCl2, 0.1 mmol·l^−1 DTT (cat. #D0632, Sigma Aldrich, Czech Republic), 85 mmol·l^−1 Sucrose (cat. #S7903, Sigma Aldrich, Česká Republika), 0.2% BSA (cat. #A2153, Sigma Aldrich, Czech Republic), 1 mmol·l^−1 ATP (cat. #A1852, Sigma Aldrich, Czech Republic), 0.1 mmol·l^−1 GTP (cat. #G8877, Sigma Aldrich, Czech Republic), and 10 μg/mL Digitonin A (cat. #D141, Sigma Aldrich, Czech Republic) were added to the cells. The buffer was removed after 30 minutes incubation at 37° C. with 5% CO2, the cells were washed once with 100 μl of cultivation medium, and 100 μl of medium was added to each well. The plates with cells were incubated for 5 hours at 37° C. with 5% CO2, 50 μl of the medium was removed and 30 μl of ONE-Glo™ Luciferase Assay System reagent (cat. #E6120, Promega, Madison, USA) was added to each well. Luminesce was read on Synergy H1 (Biotek, Winooski, USA).
Target sequence in this assay (Q86WV6 whole entry H232R): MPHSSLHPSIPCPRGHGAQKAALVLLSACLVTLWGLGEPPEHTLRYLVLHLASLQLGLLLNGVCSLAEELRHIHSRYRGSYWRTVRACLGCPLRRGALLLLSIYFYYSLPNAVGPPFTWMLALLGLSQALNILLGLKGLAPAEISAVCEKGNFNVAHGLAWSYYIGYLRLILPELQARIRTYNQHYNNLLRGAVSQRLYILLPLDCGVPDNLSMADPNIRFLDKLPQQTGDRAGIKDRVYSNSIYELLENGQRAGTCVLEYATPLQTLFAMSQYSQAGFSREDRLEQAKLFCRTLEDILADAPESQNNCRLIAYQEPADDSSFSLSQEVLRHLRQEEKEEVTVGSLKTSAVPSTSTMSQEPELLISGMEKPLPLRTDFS
(In general: In a reporter assay the amount or activity of a reporter protein is the signal.)

For experiment [2], the target named is T2, WT STING. As to the kind of experiment: Differential Scanning Fluorimetry with WT STING. Format: binding. Also on record: truncated human WT STING or AQ STING (amino acid residues 140-343); 8xHis (N, cleaved yes); SUMO (N, cleaved yes); made in house; host or cells: E. coli Rosetta-gami B (DE3). To be noted: thermal shift, truncated human WT STING 0.1 mg/ml, 150 μM CDN; for ΔTm at 150 µM: read-out: DSF ΔTm WT STING. How it is done:
as §1, §2, §3
Target sequence in this assay (Q86WV6 140-343 H232R): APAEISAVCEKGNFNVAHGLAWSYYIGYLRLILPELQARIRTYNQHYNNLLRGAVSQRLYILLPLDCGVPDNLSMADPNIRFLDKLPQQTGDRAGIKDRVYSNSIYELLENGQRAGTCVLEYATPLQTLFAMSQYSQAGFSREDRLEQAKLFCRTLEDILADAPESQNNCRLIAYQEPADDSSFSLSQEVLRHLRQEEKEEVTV

As usually defined, the EC50 is the concentration giving half of the maximal effect. The ΔTm is the shift of the melting midpoint relative to a reference.

T1 sequence (Q86WV6 140-343 G230A/H232R/R293Q): as the sequence (Q86WV6 140-343 H232R) above, with G91A, R154Q counted along it

Regarding `Nc1ncnc2c1ncn2[C@@H]1O[C@@H]2COP(=O)(O)COC3C(O)[C@H](n4cnc5c(N)ncnc54)O[C@@H]3COP(=O)(O)COC2C1O` (stereo partly drawn) [Example 10, (2R,3R,3aR,8aR,10R,11R,11aR,16aR)-2,10-bis(6-amino-9H-purin-9-yl)-3,6,11,14-tetrahydroxvdodecahydrodifuro[3,2-e:3′,2′-l][1,4,8,11]tetraoxa[2,9]diphosphacyclotetradecine 6,14-dioxide], the “DSF ΔTm AQ STING” value on AQ STING (G230A-R293Q) was −0.2 °C. For the same molecule, the EC50 at WT STING [1] was greater than 100000 nM. In addition, the “DSF ΔTm WT STING” value at WT STING [2] worked out at 0.0 °C.
Take `Nc1nc2c(ncn2[C@@H]2O[C@@H]3COP(=O)(O)O[C@H]4[C@@H](O)[C@H](n5cnc6c(=O)[nH]c(N)nc65)O[C@@H]4COP(=O)(O)O[C@H]3[C@H]2O)c(=O)[nH]1` [3′3′-c-di-GMP, reference compound]: the “DSF ΔTm AQ STING” value at AQ STING (G230A-R293Q) amounted to 7.7 °C. Moreover, on WT STING [1], the EC50 turned out to be 5800 nM. Besides, the “DSF ΔTm WT STING” value at WT STING [2] came out at 2.6 °C.
As to `Nc1nc2c(ncn2[C@@H]2O[C@@H]3COP(=O)(O)COC4C(F)[C@H](n5cnc6c(N)ncnc65)O[C@@H]4COP(=O)(O)OC3C2O)c(=O)[nH]1` (stereo partly drawn) [Example 7, 2-amino-9-((2R,3R,3aS,7aR,9R,10R,10aR,15aR)-9-(6-amino-9H-purin-9-yl)-10-fluoro-3,5,13-trihydroxy-5,13-dioxidodecahydro-2H-difuro[3,2-d:3′,2′-k][1,3,7,10]tetraoxa[2,8]diphosphacyclotridecin-2-yl)-1,9-dihydro-6H-purin-6-one], the ΔTm at 150 µM at AQ STING (G230A-R293Q) turned out to be 15 °C; at WT STING [2] it was 5.6 °C. Moreover, the concentration giving a half-maximal response (EC50) on WT STING [1] came to 30 nM.
Consider `Nc1nc2c(ncn2[C@@H]2O[C@@H]3COP(=O)(O)OC4C(F)[C@H](n5cnc6c(N)ncnc65)O[C@@H]4COP(=O)(O)COC3C2O)c(=O)[nH]1` (stereo partly drawn) [Example 4, 2-amino-9-((2R,3R,3aR,7aR,9R,10R,10aS,15aR)-2-(6-amino-9H-purin-9-yl)-3-fluoro-5,10,13-trihydroxy-5,13-dioxidodecahydro-2H-difuro[3,2-d:3′,2′-k][1,3,7,10]tetraoxa[2,8]diphosphacyclotridecin-9-yl)-1,9-dihydro-6H-purin-6-one], for which the ΔTm at 150 µM was found to be 13.6 °C at AQ STING (G230A-R293Q) and 4.8 °C on WT STING [2]. On WT STING [1], the EC50 turned out to be 50 nM.
With `Nc1ncnc2c1ncn2[C@@H]1O[C@@H]2COP(=O)(O)O[C@H]3[C@@H](O)[C@H](n4cnc5c(N)ncnc54)O[C@@H]3COP(=O)(O)O[C@H]2[C@H]1O` [3′3′-c-di-AMP, reference compound], the “DSF ΔTm AQ STING” value at AQ STING (G230A-R293Q) was 9.3 °C. For the same molecule, the EC50 on WT STING [1] was found to be 300 nM. For the same molecule, on WT STING [2], the “DSF ΔTm WT STING” value is 2.6 °C.
Taken in the same sequence, the figures for “2-amino-9-((2R,3R,3aS,7aR,9R,10R,10aS,15aR)-2-(6-amino-9H-purin-9-yl)-3,5,10,13-tetrahydroxy-5,13-dioxidodecahydro-2H-difuro[3,2-d:3′,2′-k][1,3,7,10]tetraoxa[2,8]diphosphacyclotridecin-9-yl)-1,9-dihydro-6H-purin-6-one [Example 2]” were 3.3 °C, 10400 nM and 0.1 °C.
In the case of `Nc1ncnc2c1ncn2[C@@H]1O[C@@H]2COP(=O)(O)OC3C(F)[C@H](n4cnc5c(N)ncnc54)O[C@@H]3COP(=O)(O)COC2C1F` (stereo partly drawn) [Example 13, (2R,3R,3aR,7aR,9R,10R,10aR,15aR)-2,9-bis(6-amino-9H-purin-9-yl)-3,10-difluoro-5,13-dihydroxydecahydro-2H-difuro[3,2-d:3′,2′-k][1,3,7,10]tetraoxa[2,8]diphosphacyclotridecine 5,13-dioxide], the shift in melting temperature (ΔTm) at 150 µM at AQ STING (G230A-R293Q) was 16.1 °C; on WT STING [2] it was 9.4 °C. The EC50 at WT STING [1] turned out to be 12 nM.
As to “2-amino-9-((2R,3aS,7aR,9R,10R,10aR,15aR)-9-(6-amino-9H-purin-9-yl)-10-fluoro-5,13-dihydroxy-5,13-dioxidodecahydro-2H-difuro[3,2-d:3′,2′-k][1,3,7,10]tetraoxa[2,8]diphosphacyclotridecin-2-yl)-1,9-dihydro-6H-purin-6-one [Example 15]”, the “DSF ΔTm AQ STING” value at AQ STING (G230A-R293Q) worked out at 12.7 °C. Also, the EC50 on WT STING [1] was found to be 110 nM. For the same molecule, the “DSF ΔTm WT STING” value at WT STING [2] turned out to be 4.0 °C.

The values above are taken from patent US11292812B2, “3′3′-cyclic dinucleotides” (Institute of Organic Chemistry and Biochemistry, ASCR, V.V.I, priority 2018, dated 2022).
